Assay results: US6399629B1, “Efflux pump inhibitors” (priority 1998, dated 2002)

Tested on: Pseudomonas aeruginosa PAM1001
Assay: microbe, parasite or virus in culture
Format: cell-based
Conditions: Levofloxacin 0.25 μg/mL
Outline: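 Growth inhibition is expressed as a percentage relative to a control culture containing 0.25 microg/mL levofloxacin but no EPI. Cultures (MHB, initial 1×10^6 CFU/mL) with levofloxacin and a range of EPI levels were monitored kinetically at 650 nm during 18 h incubation at 37° C.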

[1] = Concentration of Compound 2.5 μg/mL
[2] = Concentration of Compound 5 μg/mL
[3] = Concentration of Compound 10 μg/mL
[4] = Concentration of Compound 20 μg/mL
[5] = Concentration of Compound 40 μg/mL

Substance	Inhibition (%) of growth of P. aeruginosa PAM1001 [1]	Inhibition (%) of growth of P. aeruginosa PAM1001 [2]	Inhibition (%) of growth of P. aeruginosa PAM1001 [3]	Inhibition (%) of growth of P. aeruginosa PAM1001 [4]	Inhibition (%) of growth of P. aeruginosa PAM1001 [5]
trans-4-Glycylamino-L-Proline 3-Biphenylamide Dihydrochloride [Compound D306]	19%	7%	93%	100%	99%
trans-4-Glycylamino-L-Prolyl-4-(2-Chloro-5-Methylphenoxy)-piperidine Dihydrochloride [Compound D416]	21%	11%	87%	99%	99%
